Experiment [1] has as its target recombinant human NF-kappaB-inducing kinase (NIK/MAP3K14) (Homo sapiens (Human), UniProt Q99558). The experiment can be described thus: Inhibition of auto-phosphorylation of recombinant human NIK/MAP3K14 activity (AlphaScreen). The experiment is classed as biochemical. The note with it: averaged values over all measurements on all batches. On the procedure: Inhibition of auto-phosphorylation of recombinant human NF-kappaB-inducing kinase (NIK/MAP3K14) activity (AlphaScreen®)
NIK/MAP3K14 auto-phosphorylation activity was measured using the AlphaScreen® (αscreen) format (Perkin Elmer). All compounds tested were dissolved in dimethyl sulfoxide (DMSO) and further dilutions were made in assay buffer. Final DMSO concentration was 1% (v/v) in assays. Assay buffer was 50 mM Tris pH 7.5 containing 1 mM EGTA (ethylene glycol tetraacetic acid), 1 mM DTT (dithiothreitol), 0.1 mM Na3VO4, 5 mM MgCl2, 0.01% Tween® 20. Assays were carried out in 384 well Alphaplates (Perkin Elmer). Incubations consisted of compound, 25 microM Adenosine-5′-triphosphate (ATP), and 0.2 nM NIK/MAP3K14. Incubations were initiated by addition of GST-tagged NIK/MAP3K14 enzyme, carried out for 1 h at 25° C. and terminated by addition of stop buffer containing anti-phospho-IKK Ser176/180 antibody. Protein A Acceptor and Glutathione-Donor beads were added before reading using an EnVision® Multilabel Plate Reader (Perkin Elmer). Signal obtained in the wells containing blank samples was subtracted from all other wells and IC50's were determined by fitting a sigmoidal curve to % inhibition of control versus Log10 compound concentration.
(Alpha assays give light when donor and acceptor beads are brought close together.)

Experiment [2] deals with KMS12-BM cells. The experiment can be described thus: Antiproliferative activity on KMS12-BM (NIK WT) multiple myeloma cells (CellTiter-Glo). Type of experiment: cell-based, human. The note with it: KMS12-BM (NIK WT) cells, 96 hr, averaged values, read-out: KMS-12 Proliferation inhibition (IC50 (nM)). On the procedure:
(§1) Determination of antiproliferative activity on JJN-3 (NIK translocated) and KMS12-BM (NIK WT) multiple myeloma cells
(§2) All compounds tested were dissolved in DMSO and further dilutions were made in culture medium. Final DMSO concentration was 0.3% (v/v) in cell proliferation assays. Viability was assessed using CellTiter-Glo cell viability assay kit (Promega). The human JJN-3 and KMS12-BM cells (DSMZ) were cultured in RPMI 1640 medium supplemented with 2 mM L-glutamine, and 10% fetal calf serum (PAA). Cells were routinely kept as suspension cells at 37° C. in a humidified 5% CO2 atmosphere. Cells were passaged at a seeding density of 0.2×10^6/ml twice a week. Cells were seeded in black tissue culture treated 96-well plates (Perkin Elmer). Densities used for plating ranged from 15000 (JJN3) to 20000 (KMS12BM) cells per well in a total volume of 135 μl medium. Drugs and/or solvents were added (15 μl) to a final volume of 150 μl. Following 96 hr of treatment, plates were removed from the incubator and allowed to equilibrate to room temperature for approx 10 min. 75 μl CellTiter-Glo reagent was added to each well that was then covered (Perkin Elmer Topseal) and shaken on plate shaker for 10 min. Luminescence was measured on a HTS Topcount (Perkin Elmer). Within an experiment, the results for each treatment were the mean of 2 replicate wells. For initial screening purposes, compounds were tested using a 9 point dilution curve (serial 1:3 dilutions). For each experiment, controls (containing no drug) and a blank incubation (containing cells read at the time of compound addition) were run in parallel. The blank value was subtracted from all control and sample values. For each sample, the mean value for cell growth (in relative light units) was expressed as a percentage of the mean value for cell growth of the control.
On the technique in general: In ATP-based viability assays light output follows the ATP content of the culture.

The test system of experiment [3] is JJN-3 cells. In words: Antiproliferative activity on JJN-3 (NIK translocated) multiple myeloma cells (CellTiter-Glo). The experiment is classed as cell-based, human. The note with it: JJN-3 (NIK translocated) cells, 96 hr, averaged values, read-out: JJN-3 Proliferation inhibition (IC50 (nM)). On the procedure:
as §1, §2

Like-named read-outs stand apart in the source and are kept apart here.

recombinant human NF-kappaB-inducing kinase (NIK/MAP3K14), sequence (Q99558 whole entry): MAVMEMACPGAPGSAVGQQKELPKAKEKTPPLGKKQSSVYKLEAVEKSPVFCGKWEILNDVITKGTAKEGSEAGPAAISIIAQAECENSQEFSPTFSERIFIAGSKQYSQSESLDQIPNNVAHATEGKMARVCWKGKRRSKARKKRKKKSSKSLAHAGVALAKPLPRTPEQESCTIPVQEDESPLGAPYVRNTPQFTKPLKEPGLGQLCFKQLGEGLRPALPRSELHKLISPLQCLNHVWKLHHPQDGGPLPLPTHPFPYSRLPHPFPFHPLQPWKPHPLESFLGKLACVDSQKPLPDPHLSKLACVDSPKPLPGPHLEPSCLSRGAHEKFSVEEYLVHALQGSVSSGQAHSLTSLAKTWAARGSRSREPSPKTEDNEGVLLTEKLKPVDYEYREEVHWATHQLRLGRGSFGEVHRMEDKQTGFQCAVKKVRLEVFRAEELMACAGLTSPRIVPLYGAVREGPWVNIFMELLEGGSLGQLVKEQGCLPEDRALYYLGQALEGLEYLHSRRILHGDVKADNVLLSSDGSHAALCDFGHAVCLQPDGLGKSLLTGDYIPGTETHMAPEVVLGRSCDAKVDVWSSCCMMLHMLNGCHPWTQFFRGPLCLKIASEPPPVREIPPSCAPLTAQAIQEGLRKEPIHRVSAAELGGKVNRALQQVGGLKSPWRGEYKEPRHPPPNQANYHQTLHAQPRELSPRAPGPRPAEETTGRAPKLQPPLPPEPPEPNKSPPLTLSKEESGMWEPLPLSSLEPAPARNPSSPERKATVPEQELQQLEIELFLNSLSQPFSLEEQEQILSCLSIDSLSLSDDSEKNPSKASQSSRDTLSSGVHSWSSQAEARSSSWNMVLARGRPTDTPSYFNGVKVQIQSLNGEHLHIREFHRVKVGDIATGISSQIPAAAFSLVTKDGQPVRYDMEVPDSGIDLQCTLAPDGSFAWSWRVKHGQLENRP

With `Cc1cc(Nc2nccc(-c3cc(C#N)c4c(c3)[C@@](C)(CO)CN4)n2)n(C2CCS(=O)(=O)C2)n1` (mixture of isomers) [Compound 33], the IC50 was 9.1 nM in experiment [1]; roughly 6170 nM in experiment [2] (Homo sapiens, KMS-12-BM, 96 h); 1260 nM in experiment [3] (Homo sapiens, JJN-3, 96 h).
As for `Cc1cc(Nc2nccc(-c3cc(C#N)c4c(c3)[C@@](C)(CO)CN4)n2)n(CC2CCCO2)n1` (single isomer, unassigned) [Compound 51], the IC50 in experiment [1] is 4.1 nM; in experiment [2] it was roughly 1900 nM; in experiment [3] (Homo sapiens, JJN-3, 96 h), roughly 59 nM.
For the molecule `Cc1cc(Nc2nccc(-c3cc(C#N)c4c(c3)[C@@](C)(CO)CN4)n2)n(CC2CCCO2)n1` (single isomer, unassigned) [Compound 52], the IC50 was 6.9 nM in experiment [1], greater than 10000 nM in experiment [2] and 115 nM in experiment [3].
For the molecule `Cc1cc(Nc2nccc(-c3cc(C#N)c4c(c3)[C@@](C)(CO)CN4)n2)n(CC2CCCCO2)n1` (single isomer, unassigned) [Compound 68], the IC50 is 5.3 nM in experiment [1]; greater than 10000 nM in experiment [2] (Homo sapiens, KMS-12-BM, 96 h); 38 nM in experiment [3].
As to `Cc1cc(Nc2nccc(-c3cc(C#N)c4c(c3)[C@@](C)(CO)CN4)n2)n(CC2CCCCO2)n1` (single isomer, unassigned) [Compound 69], the IC50 in experiment [1] is 5.8 nM; in experiment [2], greater than 10000 nM; in experiment [3], 78 nM.
Turning to `COC(C)Cn1nc(C)cc1Nc1nccc(-c2cc(C#N)c3c(c2)[C@@](C)(CO)CN3)n1` (single isomer, unassigned) [Compound 77], the IC50 in experiment [1] was 13 nM; in experiment [2], 1580 nM; in experiment [3] (Homo sapiens, JJN-3, 96 h), 309 nM.
On to `COC(C)Cn1nc(C)cc1Nc1nccc(-c2cc(C#N)c3c(c2)[C@@](C)(CO)CN3)n1` (single isomer, unassigned) [Compound 78], for which the IC50 in experiment [1] is 9.8 nM; in experiment [2], 9120 nM; in experiment [3], 457 nM.
Regarding `Cn1ccc(Nc2nccc(-c3cc(C#N)c4c(c3)C(C)(CO)CN4)n2)n1` (centres unmarked) [Compound 1], the IC50 in experiment [1] was found to be 4 nM; in experiment [2] (Homo sapiens, KMS-12-BM, 96 h), 2430 nM; in experiment [3] (Homo sapiens, JJN-3, 96 h), 250 nM.
In the same order, the values of `Cn1nccc1Nc1nccc(-c2cc(C#N)c3c(c2)C(C)(CO)CN3)n1` (centres unmarked) [Compound 2] are 6.9 nM, 794 nM and 141 nM.
In the same order, the values of `Cc1cc(Nc2nccc(-c3cc(C#N)c4c(c3)C(C)(CO)CN4)n2)n(C)n1` (centres unmarked) [Compound 3] are 4.2 nM, roughly 1230 nM and 407 nM.
In the same order, the values of `Cn1cc(Nc2nccc(-c3cc(C#N)c4c(c3)C(C)(CO)CN4)n2)cn1` (centres unmarked) [Compound 4] are 2.5 nM, 162 nM and roughly 55 nM.
For the molecule `Cn1nc(C2(C)COC2)cc1Nc1nccc(-c2cc(C#N)c3c(c2)C(C)(CO)CN3)n1` (centres unmarked) [Compound 5], the IC50 in experiment [1] was 5.4 nM; in experiment [2] (Homo sapiens, KMS-12-BM, 96 h), greater than 10000 nM; in experiment [3] (Homo sapiens, JJN-3, 96 h) it was 708 nM.
As for `Cn1nc(C2CCCCC2)cc1Nc1nccc(-c2cc(C#N)c3c(c2)C(C)(CO)CN3)n1` (centres unmarked) [Compound 6], the IC50 in experiment [1] was 7.6 nM; in experiment [2] (Homo sapiens, KMS-12-BM, 96 h) it was greater than 10000 nM; in experiment [3] (Homo sapiens, JJN-3, 96 h) it was 347 nM.
For `CC(C)(C)c1cc(Nc2nccc(-c3cc(C#N)c4c(c3)C(C)(CO)CN4)n2)n(CCO)n1` (centres unmarked) [Compound 10] the same measures were 13 nM, greater than 10000 nM and 724 nM.
Regarding `Cc1cc(Nc2nccc(-c3cc(C#N)c4c(c3)C(C)(CO)CN4)n2)n(CCN(C)C)n1` (centres unmarked) [Compound 11], the IC50 worked out at 3700 nM in experiment [2] (Homo sapiens, KMS-12-BM, 96 h) and 576 nM in experiment [3] (Homo sapiens, JJN-3, 96 h).
Turning to `CN1CCC(n2cc(Nc3nccc(-c4cc(C#N)c5c(c4)C(C)(CO)CN5)n3)cn2)CC1` (centres unmarked) [Compound 12], the IC50 in experiment [1] is 3.6 nM; in experiment [2] (Homo sapiens, KMS-12-BM, 96 h) it was roughly 214 nM; in experiment [3] (Homo sapiens, JJN-3, 96 h), roughly 45 nM.

The values above are taken from patent US11136311B2, “Heteroaromatic derivatives as NIK inhibitors” (Janssen Pharmaceutica NV, priority 2016, dated 2021).
